In paper PMC4155923 (AIDS (London, England), 2012):
Read-outs that look alike come from different tables or passages of the source.

Assays:
CD8+ T cells = settings: abacavir hypersensitivity; ref [14]; cited from earlier work
HLA-B*57:01 = type: cell-based, human; settings: abacavir-treated cells
sHLA-B*57:01 [1] = target: T1, sHLA-B*57:01 (Homo sapiens, UniProt P01889); assay: Drug effect on LF9FITC peptide binding to sHLA-B*57:01
[2] = tested on: patients expressing HLA risk alleles; settings: cited from earlier work
sHLA-B*57:01 [3] = target: T1, sHLA-B*57:01; assay: HLA-B*57:01 fluorescence polarization competition peptide-binding assay; settings: competition with LF9FITC; for affinity for HLA-B*57:01 (in words): fluorescence polarization, no abacavir
[4] = target: Soluble HLA-B*57:01 (human | human (endogenous in 721.221)); assay: fluorescence polarisation

## Nc1nc(NC2CC2)c2ncn([C@H]3C=C[C@@H](CO)C3)c2n1 [Abacavir, abacavir]
CD8+ T cells
  requirements of CD8+ T-cell response: CD8^+ T-cell responses require transporter of antigen presentation (TAP)/tapasin expression, antigen processing and specific amino acids in the F pocket of HLA-B*57:01
HLA-B*57:01
  covalent drug-peptide adducts in peptide fractions: we have not, as yet, identified covalent drug–peptide adducts in the peptide fractions
sHLA-B*57:01 [1]; 200 μmol/l abacavir, in presence of competitor peptide HSL or STIR
  LF9FITC reference binding signal in competition experiment: expected increase in reference LF9FITC peptide binding signal with abacavir
sHLA-B*57:01 [1]; fluorescence polarization at equilibrium
  concentration at which the increase in LF9FITC binding starts: 10 µmol/L
[2]; HLA-B*57:01 individuals, ref (1)
  tolerance of abacavir in HLA-B*57:01 individuals: Many HLA-B*57:01 individuals are able to tolerate abacavir and not show hypersensitivity
[2]; drug hypersensitivity, HLA-B*57:01, ref [1]–[3]
  HLA-associated drug reaction: linked to HLA-B*57:01

## Oc1ncnc2[nH]ncc12 [allopurinol]
[2]; severe cutaneous adverse reactions, HLA-B*58:01, ref [7]
  HLA-associated drug reaction: Severe cutaneous adverse reactions associated with class I HLA

## NC(=O)N1c2ccccc2C=Cc2ccccc21 [carbamazepine]
[2]; severe cutaneous adverse reactions, HLA-B*15:02 [4], B*15:11 [5], A*31:01 [6], ref [4]–[6]
  HLA-associated drug reaction: Severe cutaneous adverse reactions associated with class I HLA

## Cc1onc(-c2c(F)cccc2Cl)c1C(=O)N[C@@H]1C(=O)N2[C@@H]1SC(C)(C)[C@@H]2C(=O)O [flucloxacillin]
[2]; liver injury, HLA-B*57:01, ref [8]
  HLA-associated drug reaction: causes drug-induced liver injury in patients expressing HLA-B*57:01

## LSSPVTKSF [LF9]
sHLA-B*57:01 [3]
  affinity for HLA-B*57:01 (in words): consistent with high-affinity binding

## STIRLLTSL
sHLA-B*57:01 [3]
  affinity for HLA-B*57:01 (in words): could strongly compete in the HLA-B*57:01 peptide-binding assay (Fig. 4a and b), with logIC50 values consistent with high-affinity binding
sHLA-B*57:01 [3]; presence vs absence of 200 μmol/l abacavir
  effect of abacavir on IC50 / inhibition by competitor peptide: No significant difference in inhibition

## LSSPVTKSF [LF9 (…)]
[4]
  log IC50: 2.6
